Results: patent EP0237138A1, “Heterocyclic compounds, their preparation and, pharmaceutical compositions containing them” (YAMANOUCHI PHARMACEUTICAL CO. LTD., priority 1986, dated 1987)

Assays:
[1] = target: T1, human placenta aldose reductase (Homo sapiens, UniProt P15121); experiment: Aldose reductase-inhibitory activity (rate of disappearance of NADPH, glyceraldehyde substrate); format: biochemical; settings: for inhibition at 1 µM: 10^-6(M); for inhibition at 0.1 µM: 10^-7(M)
T1 construct: a human placenta aldose reductase was purified to a single protein; from tissue; host or cells: human placenta
Experimental: The compound of the present invention, aldose reductase and nicotinamide adenine dinucleotide phosphate (NADPH) are dissolved in a buffer of pH 6.2 and incubated for 10 minutes at 25°C; glyceraldehyde is added thereto to start the reaction, and the rate of disappearance of NADPH is defined to be the enzyme activity of the aldose reductase.

[2] = tested on: Platelet aggregation in PRP; experiment: Platelet aggregation-inhibitory activity (arachidonate-induced aggregation in platelet-rich plasma, Born's method); settings: aggregation induced by arachidonate

Compound	inhibition at 1 µM [1] [%]	inhibition at 0.1 µM [1] [%]	Platelet Aggregation Inhibition ([2]; 200 (μM)) [%]	Platelet Aggregation Inhibition ([2]; 400 (μM)) [%]
COc1ccc2c(c1)CCCC2=C1SC(=S)N(CC(=O)O)C1=O [Example 7, 5-(6-methoxy-1,2,3,4-tetrahydro-1-natphylidene)-4-oxo-2-thioxo-3-thiazolidine-acetic acid]	93	65	100	–
COc1cccc2c1CCCC2=C1SC(=S)N(CC(=O)O)C1=O [Example 11, 5-(5-methoxy-1,2,3,4-tetrahydro-1-naphthylidene)-4-oxo-2-thioxo-3-thiazolidine-acetic acid]	89	40	–	–
O=C(O)c1ccc(N2C(=O)C(=C3CCS(=O)(=O)c4ccccc43)SC2=S)cc1 [Example 54, 4-[3-(p-carboxyphenyl)-4-oxo-2-thioxo-5-thiazolidinylidene]thiochroman 1,1-dioxide]	30	15	65	–
N=C1NC(=O)C(=C2CCS(=O)(=O)c3ccccc32)S1 [Example 95, 4-(2-imino-4-oxo-5-thiazolidinylidene)thiochroman 1,1-dioxide]	65	19	–	43
O=C1NC(=S)SC1=C1C=CS(=O)(=O)c2ccccc21 [Example 119]	53	37	–	84
O=C1NC(=O)[C@@]2(CCOc3ccc(F)cc32)N1 [Sorbinil, reference compound]	53.6	15	–	–

Continued, in another order:

inhibition at 1 µM [1] [%]	Compound	inhibition at 0.1 µM [1] [%]	Platelet Aggregation Inhibition ([2]; 200 (μM)) [%]	Platelet Aggregation Inhibition ([2]; 400 (μM)) [%]
65	O=C1NC(=S)SC1=C1CCCS(=O)(=O)c2ccccc21 [Example 49, 2,3,4,5-tetrahydro-5-(4-oxo-2-thioxo-5-thiazolidinylidene)-1-benzothiepine 1,1-dioxide]	23	–	–
72	O=C1NC(=S)SC1=C1C(=O)Nc2ccc(Cl)cc21 [Example 66, 5-chloro-3-(4-oxo-2-thioxo-5-thiazolidinylidene)-2-indolinone]	–	–	–
64	O=C1NC(=S)SC1=C1C(=O)Nc2ccc(Br)cc21 [Example 67, 5-bromo-3-(4-oxo-2-thioxo-5-thiazolidinylidene)-2-indolinone]	–	–	–
87	O=C1NC(=O)/C(=C2\CCS(=O)(=O)c3ccccc32)S1 [Example 99B, (Z)-4-(2,4-dioxo-5-thiazolidinylidene)thiochroman 1,1-dioxide]	42	–	–
83	O=C1NC(=S)SC1=C1CCSc2ccccc21 [Example 105, 4-oxo-5-(4-thiochromanylidene)-2-thioxo-thiazolidine]	29	–	–
56	O=C1NC(=S)SC1=C1C(=O)Nc2ccccc21 [Example 146, 3-(4-oxo-2-thioxo-3-thiazolidinylidene)-2-indolinone]	–	–	–
